From patent publication US20130302442A1, “METHODS OF USING (4S,4AS,5AR,12AS)-4-DIMETHYLAMINO-3,10,12,12A-TETRAHYDROXY-7-[(METHOXY(METHYL)AMINO)-METHYL]-1,11-DIOXO-1,4,4A,5,5A,6,11,12A-OCTAHYDRO-NAPHTHACENE-2-CARBOXYLIC ACID AMIDE” (priority 2012, published 2013)
≈ marks a conversion by molar mass, not a printed value. Where two headings read alike, the source gives them in different places.

Columns and labels:
Type in all cases: cell-based
[1] = tested on: E. faecium; test: In vitro MIC testing, antibacterial spectrum of activity; settings: Enterococcus faecium; for MIC50: read-out: MIC50; for MIC90: read-out: MIC90
[2] = tested on: Salmonella Spp.; test: as above; settings: for MIC50 / MIC90: Salmonella
[3] = tested on: E. coli; test: as above; settings: Escherichia coli
[4] = tested on: P. aeruginosa; test: as above; settings: P. aeruginosa (11 isolates); for MIC50 / MIC90: Pseudomonas aeruginosa
[5] = tested on: E. cloacae; test: as above; settings: Enterobacter cloacae; E. cloacae (30 isolates)
[6] = tested on: E. faecalis; test: as above; settings: E. faecalis [VSE] (31 isolates)
[7] = tested on: P. mirabilis; test: as above; settings: Proteus mirabilis; P. mirabilis (30 isolates)
[8] = tested on: K. pneumoniae; test: as above; settings: K. pneumoniae (31 isolates); for MIC50 / MIC90: Klebsiella pneumoniae
[9] = tested on: Chlamydia trachomatis; test: Susceptibility testing (MIC, MBC) of 10 isolates of C. trachomatis in HEp-2 cells
[10] = tested on: Chlamydia pneumoniae; test: Susceptibility testing (MIC, MBC) of 10 isolates of C. pneumoniae in HEp-2 cells
[11] = tested on: Chlamydia trachomatis; test: In vitro susceptibility testing of Chlamydia trachomatis in HEp-2 cells (first study); settings: Chlamydia trachomatis, C. trachomatis strains, read-out: MIC at which 90% of the strains were inhibited (MIC90)

SMILES	MIC50 [2] [µg/mL]	MIC90 [2] [µg/mL]	MIC50 [3] [µg/mL]	MIC90 [3] [µg/mL]	MIC Range [4] [µg/mL]	MIC50 [4] [µg/mL]	MIC90 [4] [µg/mL]	MIC50 [5] [µg/mL]	MIC90 [5] [µg/mL]	MIC50 [7] [µg/mL]	MIC90 [7] [µg/mL]	MIC Range [8] [µg/mL]	MIC50 [8] [µg/mL]	MIC90 [8] [µg/mL]	further results
CC1(C)S[C@@H]2[C@H](NC(=O)[C@H](N)c3ccccc3)C(=O)N2[C@H]1C(=O)O [Ampicillin]	1 (≈ 2.86 µM)	> 64	> 64	> 64	>64	> 64	> 64	64 (≈ 183 µM)	> 64	4 (≈ 11.4 µM)	> 64	>64	> 64	> 64	MIC50 ([1]; E. faecium [VRE] (30 isolates)): > 64 µg/mL; MIC90 ([1]; E. faecium [VRE] (30 isolates)): > 64 µg/mL; MIC50 ([1]; E. faecium [VSE] (32 isolates)): 64 µg/mL (≈ 183 µM); MIC90 ([1]; E. faecium [VSE] (32 isolates)): > 64 µg/mL; MIC Range [6]: 0.5 to 8 µg/mL; MIC50 ([6]; Enterococcus faecalis, read-out: MIC50): 1 µg/mL (≈ 2.86 µM); MIC90 ([6]; Enterococcus faecalis, read-out: MIC90): 1 µg/mL (≈ 2.86 µM)
CC[C@H]1OC(=O)[C@H](C)[C@@H](O[C@H]2C[C@@](C)(OC)[C@@H](O)[C@H](C)O2)[C@H](C)[C@@H](O[C@@H]2O[C@H](C)C[C@H](N(C)C)[C@H]2O)[C@](C)(O)C[C@@H](C)CN(C)[C@H](C)[C@@H](O)[C@]1(C)O [Azithromycin]	–	–	–	–	–	–	–	–	–	–	–	–	–	–	MIC Range ([9]; 72 h): 0.003 to 0.03 µg/mL; MIC50 ([9]; Chlamydia trachomatis, 72 h): 0.0075 µg/mL (≈ 0.01 µM); MIC90 ([9]; Chlamydia trachomatis, 72 h): 0.015 µg/mL (≈ 0.02 µM); MBC ([9]; Chlamydia trachomatis, after passage, read-out: MBC 90%): 0.015 µg/mL (≈ 0.02 µM); MBC Range ([9]; after passage): 0.007 to 0.03 µg/mL; MIC Range ([10]; 72 h): 0.03 to 0.0625 µg/mL; MIC50 ([10]; Chlamydia pneumoniae, 72 h): 0.0625 µg/mL (≈ 0.0834 µM); MIC90 ([10]; Chlamydia pneumoniae, 72 h): 0.0625 µg/mL (≈ 0.0834 µM); MBC ([10]; Chlamydia pneumoniae, after passage, read-out: MBC 90%): 0.25 µg/mL (≈ 0.334 µM); MBC 90% ([10]; after passage): 0.25 µg/mL (≈ 0.334 µM); MBC Range ([10]; after passage): 0.0625 to 0.25 µg/mL; MIC90 [11]: 0.015 µg/mL (≈ 0.02 µM)
CC(=O)OCC1=C(C(=O)O)N2C(=O)[C@@H](NC(=O)Cc3cccs3)[C@H]2SC1 [Cephalothin]	2 (≈ 5.04 µM)	16 (≈ 40.4 µM)	–	> 64	>64	> 64	> 64	> 64	> 64	8 (≈ 20.2 µM)	> 64	>64	> 64	> 64	–
O=C(O)c1cn(C2CC2)c2cc(N3CCNCC3)c(F)cc2c1=O [Ciprofloxacin]	0.015 (≈ 0.0453 µM)	0.03 (≈ 0.0905 µM)	0.015 (≈ 0.0453 µM)	> 2	–	> 2	> 2	–	–	> 2	> 2	–	> 2	> 2	MIC Range ([2]; Salmonella Spp. (35 isolates)): 0.015 to 0.25 µg/mL
